Measured values reported in paper PMC6586847, “ATP binds and inhibits the neurodegeneration-associated fibrillization of the FUS RRM domain” (Communications Biology, 2019).

Target: T1, FUS RRM domain (Homo sapiens, UniProt P35637)
T1 construct: RRM domain (285–370)
T1 sequence (P35637 284-371 limits assumed): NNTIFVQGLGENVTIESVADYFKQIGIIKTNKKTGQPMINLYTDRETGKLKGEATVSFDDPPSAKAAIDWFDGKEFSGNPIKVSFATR
Experiment: 1H-15N HSQC NMR titration, one-site fit of chemical shift differences
Assay type: binding

| Kd [mM] | SMILES |
| --- | --- |
| 12.6 ± 3.53 | O=P(O)(O)OP(=O)(O)OP(=O)(O)O [PPP] |
| 17.2 ± 2.61 | Nc1ncnc2c1ncn2[C@@H]1O[C@H](COP(=O)(O)O)[C@@H](O)[C@H]1O [AMP] |

| SMILES | Kd [mM] |
| --- | --- |
| Nc1ncnc2c1ncn2[C@@H]1O[C@H](COP(=O)(O)OP(=O)(O)OP(=O)(O)O)[C@@H](O)[C@H]1O [ATP] | 3.77 ± 0.49 |
